Assay results reported in patent US20040265265A1, “Odor control composition and process” (H&S CHEMICAL COMPANY, INC., priority 2001, published 2004).

Legend:
[1] = stability of solutions as a function of pH; type: physicochemical; settings: below a pH of 6
Source text: As is discussed above the pH range for CHT and CH-BENZ solutions for use in this invention can be from about 6- 14. […] While the solutions of this invention are effective above a pH of 10.0, solutions having a pH of 10.0 can only be used for industrial applications, due to their caustic nature.
This stability is important in domestic applications of this invention where long shelf life is very desirable.

[2] = limit of solubility in water; settings: at room temperature in water

| SMILES | stability in acidic medium [1] | limit of solubility [2] |
| --- | --- | --- |
| Cc1ccc(S(=O)(=O)[N-]Cl)cc1.[Na+] [CHT, Chloramine-T] | tend to decompose | about 15% |
| O=C([O-])c1ccc(S(=O)(=O)NCl)cc1.[Na+] [CH-BENZ, N-Chloro-4-Carboxybenzenesulfonamide sodium salt] | tend to decompose | about 20% |
